The record followed here is PMC7961587, “Novel Cell Permeable Polymers of N-Substituted L-2,3-Diaminopropionic Acid (DAPEGs) and Cellular Consequences of Their Interactions with Nucleic Acids” (International Journal of Molecular Sciences, 2021).

Data set [1] concerns HB2 and MDA-MB-231 cells. In words: Cell permeability and localization by fluorescence microscopy. Type of data set: cell-based, human. From the text: Preliminary cell permeability experiments facilitated the identification of three groups of compounds. […] The first group includes compound 4 and its derivatives (4a and 4b) and the family of compound 5 (5a and 5b). Compounds 4 and 5 are similar in structure and are composed of six residues of diaminopropionic acid (Dap) decorated with side chains of different lengths, terminating with the same highly positive guanidine moiety. […] Both compounds display unique cellular localization. […] We believe that such effective nuclear localisation of the first group of tested compounds is due to the effective mimicking of the nuclear localisation sequence (NLS). Such sequence consists of several positively charged lysines or arginines present in the protein structure. Additionally, side chain length of the polymer molecules seems to be a crucial factor that is optimal for compounds belonging to first group of polymers.
HB2 and MDA-MB-231 cells were seeded on 24-well plates at a density 1.5 × 10^4/well and 4 × 10^4/well, respectively, and incubated in 0.5 mL complete medium for 48 h. Subsequently, cells were washed with phosphate-buffered saline (PBS), and fresh medium with a fluorescently labeled peptide was added to each well at a concentration of 10 µM. For nucleus staining a DAPI solution (ThermoFisher Scientific, Waltham, MA, USA, […] R37606) in PBS was employed in conditions recommended by the supplier. After the incubation (2 h or 24 h), cells were washed thoroughly with PBS, and then a phenol red-free culture medium (FluoroBrite, DMEM) was added. Subsequently, the cells were examined using an Olympus IX51 fluorescence microscope (Olympus, Tokyo, Japan) using appropriate filters: blue for DAPI, green for FITC, and red TAMRA. Next, the images were merged and colocalization of the dyes’ emission were analyzed.

The target of data set [2] is dsDNA (76 bp fragment) containing the sequence of beta-actin. In words: Microscale thermophoresis (MST), dsDNA binding. Details: species or system Homo sapiens. To be noted: Monolith NT.115, 0.437 µM 5/6-FAM-labeled compound, dsDNA 6.1 nM–200 µM, EDBS buffer pH 8, 32 °C 1 h, scanned at 25 °C, at least two independent experiments, read-out: Binding constant, double-stranded DNA (MST). The method, then: (§1) Figure 7 Microscale thermophoresis (MST) analysis of dsDNA binding by 5/6-FAM-labeled compounds. The MST analysis. FAM-labeled compounds 1a (A), 4a (B), 5a (C), and ssDNA binding by 5/6-FAM-labeled compounds 1a (E), 4a (F), 5a (G) was performed using the Monolith NT.115 instrument (NanoTemper). Binding was measured between increasing concentrations (6.1 nM–200 µM) of dsDNA (76 bp fragment) and 0.437 µM of the indicated compounds labeled with 5/6-FAM. Control experiments were performed with DNA and 5/6-FAM dye (D,H).
(§2) Figure 9 Microscale thermophoresis (MST) analysis of dsDNA binding by 5/6-FAM-labeled compounds. The MST analysis of dsDNA binding by 5/6-FAM-labeled compounds 13a (A) and 14a (B), and ssDNA binding by 5/6-FAM-labeled compounds 13a (D) and 14a (E) was performed using the Monolith NT.115 instrument (NanoTemper). Binding was measured between increasing concentration (6.1 nM–200 µM) of dsDNA (76 bp fragment) and 0.437 µM of the indicated compounds labeled with 5/6-FAM. A control experiment was performed with DNA and 5/6-FAM dye (C,F).
(§3) Microscale thermophoresis was performed using the Monolith NT.115 instrument (NanoTemper Technologies GmbH, Munich, Germany). Binding between dsDNA (76 bp) or ssDNA (76 nt) fragments and test compounds labeled with 5/6-FAM was measured. […] All data were analyzed using MO Affinity Analysis software (NanoTemper, Munich, Germany).
(In general: In MST a laser heats a spot of the sample, and binding alters the fluorescence response.)

Data set [3] addresses ssDNA (76 nt) fragment. In words: Microscale thermophoresis (MST), ssDNA binding. Details: species or system Homo sapiens. To be noted: Monolith NT.115, 0.437 µM 5/6-FAM-labeled compound, EDBS buffer pH 8, 32 °C 1 h, scanned at 25 °C, at least two independent experiments, read-out: Binding constant, single-stranded DNA (MST). The method, then:
as §1, §2, §3

For data set [4], the system named is MDA-MB-231 or HB-2 cell lines. The data set can be described thus: Cytotoxicity assay: MTT. Type of data set: cell-based, human. Particulars: 10 µM; MTT, Figure S2; HB-2 and MDA-MB-231. The method, then: Cell viability against cell-penetrating compounds was detected by the MTT assay. The HB2 and MDA-MB-231 cells were seeded into 96-well plates at a density of 5 × 10^3/well and 7 × 10^3/well, respectively, and incubated in complete medium (100 µL/well) for 48 h. […] Cells incubated in media without any test compounds were used as control. After incubation, medium containing test compounds was removed, and 225 µL fresh medium with 25 µL 3-(4,5-dimethylthiazol-2-yl)-2,5-diphenyltetrazolium bromide (MTT) was added (0.5 mg/mL per well). After incubation at 37 °C for 4 h, supernatants were removed, and the formazan crystals were dissolved overnight with dimethyl sulfoxide (DMSO; 150 µL/well). Results were analyzed using a microplate reader (SPECTROstar Nano, BMG LABTECH, Ortenberg, Germany) at 570 nm and 690 nm.

Data set [5] relates to HB2 and MDA-MB-231 cells. In words: Transfection with pmaxGFP plasmid and cytotoxicity of plasmid:compound complexes. Type of data set: cell-based, human. Particulars: pmaxGFP:compound complex 4.62 × 10^−10 M. From the text:
Figure 10 (A) Fluorescence imaging of HB-2 and MDA-MB-231 cells transfected with pmaxGFP plasmid mixed with compounds 5, 13, 14, or the commercially available transfection reagent (control). (B) Cytotoxicity of plasmid pmaxGFP:compound complex in HB2 and MDA-MB-231 cells at the concentration of the complex equal to 4.62 × 10^−10 M.
In this experiment, second-generation compounds (compounds 5, 13, and 14) were used as transfection reagents. See transfection procedure in methodology below. After gene expression, the medium was removed and cells were lysed with 0.5 M NaOH (100 µL/well), and the fluorescence intensity was analyzed using a microplate reader at excitation and emission wavelengths of 488 and 510 nm, respectively.
In this experiment, second-generation (GO2)n compounds (compounds 5, 13, and 14) were used as transfection reagents. HB2 and MDA-MB-231 were seeded in 96-well plates at a density of 5 × 10^3/well and 7 × 10^3/well in complete medium and grown until 60–70% confluency. […] The DNA concentration was determined using UV readout at 260/280 nm. […] Results were observed by fluorescence microscopy.

Data set [6] concerns HB2 and MDA-MB-231 cells. In words: Cytotoxicity assay CCK-8. Particulars: CCK8, Figure S5; 1–100 µM; 2 h or 24 h. Type of data set: cell-based, human. The method, then:
Cell viability against cell-penetrating peptidomimetics was detected using the cell counting kit-8 (CCK-8) assay (Sigma Aldrich, Poznan, Poland). The HB2 and MDA-MB-231 cells were seeded into 96-well plates at a density of 5 × 10^3/well and 7 × 10^3/well, respectively, and incubated in complete medium (100 µL/well) for 48 h. Then, the medium was replaced with fresh medium (100 µL/well), and solutions of compounds at various concentrations (1, 5, 10, 20, 50, and 100 µM) were added; the cells were incubated for 2 h or 24 h. Cells incubated in media without any additives were used as control. After incubation, 10 µL/well of 2-(2-methoxy-4-nitrophenyl)-3-(4-nitrophenyl)-5-(2,4-disulfophenyl)-2H-tetrazolium, monosodium salt (WST-8) reagent was added according to the manufacturers’ instructions, and the mixture was incubated at 37 °C for 4 h. Cell viability was analyzed on the basis of formazan absorbance using a microplate reader (SPECTROstar Nano, BMG LABTECH, Ortenberg, Germany) at 450 nm.
Table 1S. Minimal charge to ratio (N/P) of each compoun d for efficient complexation with
DNA. *minimal N/P ratio resulting in effective complex formation based on EMSA. **ND ‐
No Sequence Minimal N/P ratio*
9 O2Oc‐[Dap(HO2)]6‐O2Oc‐NH2 No binding
Figure 5S. CCK8 cytotoxicity assay performed for three compounds (5, 13, and 14). Two
different cell lines were used: A) HB‐2 and B) MDA‐MB‐231 […]

As to 5′,6-FAM-O2Oc-(Arg)6-O2Oc-NH2 [1a], in data set [1] (10 µM, fluorescence microscopy, HB2 or MDA-MB-231 cells), the “Cell membrane crossing and localization, in words” value was “partially visible in the cytoplasm in the form of granules”. In addition, the “Cell Permeablility (Target): cellular localization” value in data set [1] (fluorescence microscope Olympus IX51, 10 µM fluorescently labeled compound, DAPI nucleus staining) is “cytoplasm”. Further, the figures for the Kd in data set [2] and in data set [3] were 7.4 ± 0.1 µM and 0.02 ± 0.04 µM, respectively. Moreover, the “Cytotoxicity at the concentration used in the cell experiments, in words” value in data set [4] was “slightly cytotoxic”.

For the molecule `N=C(N)NCCOCCOCC(=O)NC[C@H](NC(=O)COCCOCCN)C(=O)N[C@@H](CNC(=O)COCCOCCNC(=N)N)C(=O)N[C@@H](CNC(=O)COCCOCCNC(=N)N)C(=O)N[C@@H](CNC(=O)COCCOCCNC(=N)N)C(=O)N[C@@H](CNC(=O)COCCOCCNC(=N)N)C(=O)N[C@@H](CNC(=O)COCCOCCNC(=N)N)C(=O)N[C@@H](CNC(=O)COCCOCCNC(=N)N)C(=O)N[C@@H](CNC(=O)COCCOCCNC(=N)N)C(=O)NCCOCCOCC(N)=O` [compound 14, O2Oc-[Dap(GO2)]8-O2Oc-NH2], the Post-transfection cytotoxicity in data set [5] is listed as 30%. Moreover, the “Cytotoxicity (CCK-8), in words” value in data set [6] is on record as “low cytotoxicity”.
